Patent publication US7452876B2, “Cyclopropyl fused indolobenzazepine HCV NS5B inhibitors” (Bristol-Myers Squibb Company, priority 2006, dated 2008)

Tests used:
[1] = target: T1, HCV NS5B RdRp genotype 1b (Hepatitis C virus genotype 1b, UniProt Q9WMX2); assay: Modified HCV NS5B RdRp enzyme assay (preincubation protocol); format: biochemical
T1 construct: The protein was expressed with an 18 amino acid C-terminal truncation to enhance the solubility; made in house; host or cells: E. coli BL21 (DE3), pET21a
Procedure: HCV NS5B RdRp cloning, expression, and purification. The cDNA encoding the NS5B protein of HCV, genotype 1b, was cloned into the pET21a expression vector. The protein was expressed with an 18 amino acid C-terminal truncation to enhance the solubility. The E. coli competent cell line BL21 (DE3) was used for expression of the protein. Cultures were grown at 37° C. for ˜4 hours until the cultures reached an optical density of 2.0 at 600 nm. The cultures were cooled to 20° C. and induced with 1 mM IPTG. Fresh ampicillin was added to a final concentration of 50 μg/ml and the cells were grown overnight at 20° C.
Cell pellets (3L) were lysed for purification to yield 15-24 mgs of purified NS5B. The lysis buffer consisted of 20 mM Tris-HCl, pH 7.4, 500 mM NaCl, 0.5% triton X-100, 1 mM DTT, 1 mM EDTA, 20% glycerol, 0.5 mg/ml lysozyme, 10 mM MgCl2, 15 ug/ml deoxyribonuclease I, and Complete TM protease inhibitor tablets (Roche). After addition of the lysis buffer, frozen cell pellets were resuspended using a tissue homogenizer. To reduce the viscosity of the sample, aliquots of the lysate were sonicated on ice using a microtip attached to a Branson sonicator. The sonicated lysate was centrifuged at 100,000×g for 1 hr at 4° C. and filtered through a 0.2 μm filter unit (Corning).
The protein was purified using three sequential chromatography steps: Heparin sepharose CL-6B, polyU sepharose 4B, and Hitrap SP sepharose (Pharmacia). The chromatography buffers were identical to the lysis buffer but contained no lysozyme, deoxyribonuclease I, MgCl2 or protease inhibitor and the NaCl concentration of the buffer was adjusted according to the requirements for charging the protein onto the column. Each column was eluted with a NaCl gradient which varied in length from 5-50 column volumes depending on the column type. After the final chromatography step, the resulting purity of the enzyme is >90% based on SDS-PAGE analysis. The enzyme was aliquoted and stored at −80° C.
Standard HCVNS5B RdRp enzyme assay. HCV RdRp genotype 1b assays were run in a final volume of 60 μl in 96 well plates (Costar 3912). The assay buffer is composed of 20 mM Hepes, pH 7.5, 2.5 mM KCl, 2.5 mM MgCl2, 1 mM DTT, 1.6 U RNAse inhibitor (Promega N2515), 0.1 mg/ml BSA (Promega R3961), and 2% glycerol. All compounds were serially diluted (3-fold) in DMSO and diluted further in water such that the final concentration of DMSO in the assay was 2%. HCV RdRp genotype 1b enzyme was used at a final concentration of 28 nM. A polyA template was used at 6 nM, and a biotinylated oligo-dT 12 primer was used at 180 nM final concentration. Template was obtained commercially (Amersham 27-4110). Biotinylated primer was prepared by Sigma Genosys. 3H-UTP was used at 0.6 μCi (0.29 μM total UTP). Reactions were initiated by the addition of enzyme, incubated at 30° C. for 60 min, and stopped by adding 25 μl of 50 mM EDTA containing SPA beads (4 μg/μl, Amersham RPNQ 0007). Plates were read on a Packard Top Count NXT after >1 hr incubation at room temperature.
Modified HCVNS5B RdRp enzyme assay. A modified enzyme assay was performed essentially as described for the standard enzyme assay except for the following: The biotinylated oligo dT12 primer was precaptured on streptavidin-coated SPA beads by mixing primer and beads in assay buffer and incubating at room temperature for one hour. Unbound primer was removed after centrifugation. The primer-bound beads were resuspended in 20 mM Hepes buffer, pH 7.5 and used in the assay at final concentrations of 20 nM primer and 0.67 μg/μl beads. Order of addition in the assay: enzyme (14 nM) was added to diluted compound followed by the addition of a mixture of template (0.2 nM), 3H-UTP (0.6 μCi, 0.29 μM), and primer-bound beads, to initiate the reaction; concentrations given are final. Reactions were allowed to proceed for 4 hours at 30° C.
IC50 values for compounds were determined using seven different [I]. […]

HCV replicon cells = assay: HCV replicon FRET assay; format: cell-based; conditions: Hepatitis C virus
Excerpt: FRET Assay Preparation. To perform the HCV FRET screening assay, 96-well cell culture plates were used. The FRET peptide (Anaspec, Inc.) (Taliani et al., Anal. Biochem. 1996, 240, 60-67) contains a fluorescence donor, EDANS, near one end of the peptide and an acceptor, DABCYL, near the other end. The fluorescence of the peptide is quenched by […] resonance energy transfer (RET) between the donor and the acceptor, but as the NS3 protease cleaves the peptide the products are released from RET quenching and the fluorescence of the donor becomes apparent. The assay reagent was made as follows: 5× cell Luciferase cell culture lysis reagent from Promega (#E153A) diluted to 1× with dH2O, NaCl added to 150 mM final, the FRET peptide diluted to 20 uM final from a 2 mM stock.
To prepare plates, HCV replicon cells, with or without a Renilla luciferase reporter gene, were trypsinized and placed into each well of a 96-well plate with titrated test compounds added in columns 3 through 12; columns 1 and 2 contained a control compound (HCV protease inhibitor), and the bottom row contained cells without compound. The plates were then placed in a CO2 incubator at 37° C.
Assays. Subsequent to addition of the test compounds described above (FRET Assay Preparation), at various times the plate was removed and Alamar blue solution (Trek Diagnostics, #00-100) was added per well as a measure of cellular toxicity. After reading in a Cytoflour 4000 instrument (PE Biosystems), plates were rinsed with PBS and then used for FRET assay by the addition of 30 ul of the FRET peptide assay reagent described above (FRET Assay Preparation) per well. The plate was then placed into the Cytoflour 4000 instrument which had been set to 340 excite/490 emission, automatic mode for 20 cycles and the plate read in a kinetic mode. Typically, the signal to noise using an endpoint analysis after the reads was at least three-fold. Alternatively, after Alamar blue reading, plates were rinsed with PBS, 50 ul of DMEM (high glucose) without phenol red was added and plates were then used for luciferase assay using the Promega Dual-Glo Luciferase Assay System.
Compound analysis was determined by quantification of the relative HCV replicon inhibition and the relative cytotoxicity values. To calculate cytoxicity values, the average Alamar Blue fluorescence signals from the control wells were set as 100% non-toxic. The individual signals in each of the compound test wells were then divided by the average control signal and multiplied by 100% to determine […]. To calculate the HCV replicon inhibition values, an average background value was obtained from the two wells containing the highest amount of HCV protease inhibitor at the end of the assay period. These numbers were similar to those obtained from naïve Huh-7 cells.
The background numbers were then subtracted from the average signal obtained from the control wells and this number was used as 100% activity. The individual signals in each of the compound test wells were then divided by the averaged control values after background subtraction and multiplied by 100% to determine percent activity. EC50 values for a protease inhibitor titration were calculated as the concentration which caused a 50% reduction in FRET or luciferase activity. The two numbers generated for the compound plate, percent cytoxicity and percent activity were used to determine compounds of interest for further analysis.

T1 sequence (Q9WMX2 2420-2992): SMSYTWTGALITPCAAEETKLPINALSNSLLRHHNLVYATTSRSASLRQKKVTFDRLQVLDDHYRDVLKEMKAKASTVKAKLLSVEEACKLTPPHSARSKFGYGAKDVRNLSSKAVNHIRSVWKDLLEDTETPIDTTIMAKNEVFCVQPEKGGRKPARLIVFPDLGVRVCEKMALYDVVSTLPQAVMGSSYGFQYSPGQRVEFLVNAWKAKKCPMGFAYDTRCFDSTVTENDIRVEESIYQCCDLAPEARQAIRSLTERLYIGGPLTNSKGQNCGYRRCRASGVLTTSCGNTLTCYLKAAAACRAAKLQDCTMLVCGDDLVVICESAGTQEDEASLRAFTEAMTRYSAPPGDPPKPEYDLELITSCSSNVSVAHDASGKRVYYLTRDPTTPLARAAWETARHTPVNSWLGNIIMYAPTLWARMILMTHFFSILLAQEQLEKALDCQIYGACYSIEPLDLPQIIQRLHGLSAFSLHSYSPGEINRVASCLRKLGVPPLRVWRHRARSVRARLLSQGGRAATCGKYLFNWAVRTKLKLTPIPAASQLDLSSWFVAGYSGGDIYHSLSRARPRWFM

In the case of `COc1ccc2c(c1)C1CC1(NC(=O)N1C[C@@H](C)O[C@@H](C)C1)Cn1c-2c(C2CCCCC2)c2ccc(C(=O)NS(=O)(=O)N(C)C)cc21` (stereo partly shown), the IC50 [1] is reported as 20 to 1000 nM and the EC50 (HCV replicon cells) is reported as 70 to 1000 nM.

`O=C(O)c1ccc2c(C3CCCCC3)c3n(c2c1)CC1(NC(=O)N2CCOCC2)CC1c1ccccc1-3` (stereo not shown) was tested, and the IC50 [1] was 20 to 1000 nM and the EC50 (HCV replicon cells) was 70 to 1000 nM.

For `COc1ccc2c(c1)C1CC1(NC(=O)N1CCOCC1)Cn1c-2c(C2CCCCC2)c2ccc(C(=O)O)cc21` (stereo not shown), the IC50 [1] was 20 to 1000 nM and the EC50 (HCV replicon cells) was 70 to 1000 nM.

Work on `COC(=O)c1ccc2c(C3CCCCC3)c3n(c2c1)CC1(NC(=O)N2CCOCC2)CC1c1ccccc1-3` (stereo not shown) yielded an IC50 [1] of 20 to 1000 nM.

`COC(=O)c1ccc2c(C3CCCCC3)c3n(c2c1)CC1(NC(=O)N2CCOCC2)CC1c1cc(OC)ccc1-3` (stereo not shown) was tested, and the IC50 [1] was 20 to 1000 nM.

`COc1ccc2c(c1)C1CC1(NC(=O)N1CC(OC)C1)Cn1c-2c(C2CCCCC2)c2ccc(C(=O)NS(=O)(=O)N(C)C)cc21` (stereo not shown) was tested, and the IC50 [1] was 20 to 1000 nM and the EC50 (HCV replicon cells) was 20 to 1000 nM.

In the case of `COc1ccc2c(c1)C1CC1(NC(=O)OC(C)(C)C)Cn1c-2c(C2CCCCC2)c2ccc(C(=O)NS(=O)(=O)N(C)C)cc21` (stereo not shown), the IC50 [1] is reported as 20 to 1000 nM and the EC50 (HCV replicon cells) is reported as 20 to 1000 nM.

`COc1ccc2c(c1)C1CC1(NC(=O)N(C)CC1CCOCC1)Cn1c-2c(C2CCCCC2)c2ccc(C(=O)NS(=O)(=O)N(C)C)cc21` (stereo not shown) showed an IC50 [1] of 20 to 1000 nM and an EC50 (HCV replicon cells) of 20 to 1000 nM.

Molecule `COc1ccc2c(c1)C1CC1(NC(=O)N(C)CCN(C)C)Cn1c-2c(C2CCCCC2)c2ccc(C(=O)NS(=O)(=O)N(C)C)cc21` (stereo not shown) has an IC50 [1] of 20 to 1000 nM and an EC50 (HCV replicon cells) of 20 to 1000 nM.

Molecule `COc1ccc2c(c1)C1CC1(N)Cn1c-2c(C2CCCCC2)c2ccc(C(=O)NS(=O)(=O)N(C)C)cc21` (stereo not shown) has an IC50 [1] of 20 to 1000 nM and an EC50 (HCV replicon cells) of 20 to 1000 nM.

`COc1ccc2c(c1)[C@@H]1C[C@]1(NC(=O)OC(C)(C)C)Cn1c-2c(C2CCCCC2)c2ccc(C(=O)NS(=O)(=O)N(C)C)cc21` gave an IC50 [1] of 20 to 1000 nM and an EC50 (HCV replicon cells) of 20 to 1000 nM.

`COc1ccc2c(c1)[C@@H]1C[C@]1(N)Cn1c-2c(C2CCCCC2)c2ccc(C(=O)NS(=O)(=O)N(C)C)cc21` gave an IC50 [1] of 20 to 1000 nM and an EC50 (HCV replicon cells) of 20 to 1000 nM.

In the case of `COCCNC(=O)CN(C)C(=O)NC12CC1c1cc(OC)ccc1-c1c(C3CCCCC3)c3ccc(C(=O)NS(=O)(=O)N(C)C)cc3n1C2` (stereo not shown), the IC50 [1] is reported as 20 to 1000 nM and the EC50 (HCV replicon cells) is reported as 20 to 1000 nM.

With `COc1ccc2c(c1)C1CC1(NC(=O)N(C)CC(N)=O)Cn1c-2c(C2CCCCC2)c2ccc(C(=O)NS(=O)(=O)N(C)C)cc21` (stereo not shown) the IC50 [1] was 20 to 1000 nM and the EC50 (HCV replicon cells) was 20 to 1000 nM.

For `COc1ccc2c(c1)C1CC1(NC(=O)N(C)CC(=O)N1CCN(C)CC1)Cn1c-2c(C2CCCCC2)c2ccc(C(=O)NS(=O)(=O)N(C)C)cc21` (stereo not shown), the IC50 [1] was 20 to 1000 nM and the EC50 (HCV replicon cells) was 20 to 1000 nM.

In the case of `CNC12CC1c1cc(OC)ccc1-c1c(C3CCCCC3)c3ccc(C(=O)NS(=O)(=O)N(C)C)cc3n1C2` (stereo not shown), the IC50 [1] is reported as 20 to 1000 nM.

`COc1ccc2c(c1)C1CC1(NC(=O)N1C[C@@H](C)N(C)[C@@H](C)C1)Cn1c-2c(C2CCCCC2)c2ccc(C(=O)NS(=O)(=O)N(C)C)cc21` (stereo partly shown) showed an IC50 [1] of 20 to 1000 nM and an EC50 (HCV replicon cells) of 20 to 1000 nM.
